Experimental data as given in patent publication US7595401B2, “Therapeutic compounds and their use in cancer” (Myriad Pharmaceuticals, Inc., priority 2006, dated 2009).

Test system: purified human Hsp90
Assay: Binding Assay: fluorescence polarization with BODIPY-labeled geldanamycin
Details: BODIPY-GM 10 nM, Hsp90 30 nM
Procedure, shortened: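 Fluorescence polarization competition with BODIPY-geldanamycin (10 nM final) and human Hsp90 (30 nM final) in HEPES-KOH pH 7.3 buffer with molybdate, NP-40, DTT; 2% DMSO, overnight at room temperature. Read 485/530 nm; percent inhibition from mP normalized to DMSO controls, fluorescent-compound points excluded.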

Structure (SMILES)	% Inhibition at 5 μM Compound Concentration [%]	IC50 [nM]
COc1ccc(OC)c(Sc2nc3c(N)ncn(CCC4CC(C)(C)NC(C)(C)C4)c-3n2)c1 [Example 360, 8-[(2,5-Dimethoxyphenyl)thio]-3-[2-(2,2,6,6-tetramethylpiperidin-4-yl)ethyl]-3H-purin-6-amine]	5	
COc1cc(Sc2nc3c(N)ncn(CCc4ccccc4)c-3n2)cc(OC)c1OC [Example 46, 3-phenethyl-8-(3,4,5-trimethoxy-phenylsulfanyl)-3H-purin-6-ylamine]		> 10000
Nc1ncnc2c1nc(Sc1cc3c(cc1Br)OCO3)n2CCc1cccc(C(F)(F)F)c1 [Example 165, 8-(6-Bromo-benzo[1,3]dioxol-5-ylsulfanyl)-9-[2-(3-trifluoromethyl-phenyl)-ethyl]-9H-purin-6-ylamine]	60	300
CCCNC(=N)N1CCC(CCn2c(Sc3cc4c(cc3Br)OCO4)nc3c(N)ncnc32)CC1 [Example 618, 4-(2-{6-Amino-8-[(6-bromo-1,3-benzodioxol-5-yl)thio]-9 H-purin-9-yl}ethyl)-N-propylpiperidine-1-carboximidamide]		41
COc1ccc(OC)c(Sc2nc3c(N)ncnc3n2CCc2c(Cl)cccc2Cl)c1 [Example 251, 9-[2-(2,6-Dichlorophenyl)ethyl]-8-[(2,5-dimethoxyphenyl)thio]-9H-purin-6-amine]		75
CCOc1cc(CCn2c(Sc3cc(OC)ccc3OC)nc3c(N)ncnc32)ccc1OC [Example 111, 8-(2,5-Dimethoxy-phenylsulfanyl)-9-[2-(3-ethoxy-4-methoxy-phenyl)-ethyl]-9H-purin-6-ylamine]		10000
CCOc1ccc(OCC)c(Sc2nc3c(N)ncnc3n2CCc2ccccc2)c1 [Example 189, 8-(2,5-Diethoxy-phenylsulfanyl)-9-phenethyl-9H-purin-6-ylamine]		> 8000
Nc1ncn(CCC2CCCN2C(=O)OCc2ccccc2)c2nc(Sc3cc4c(cc3Br)OCO4)nc1-2 (centres unmarked) [Example 421, Benzyl 2-(2-{6-amino-8-[(6-bromo-1,3-benzodioxol-5-yl)thio]-3H-purin-3-yl}ethyl)pyrrolidine-1-carboxylate]	28	
CC(C)(C)OC(=O)NC(C)(C)C(=O)N1CCC(CCn2c(Sc3cc4c(cc3Br)OCO4)nc3c(N)ncnc32)CC1 [Example 711]		600
COc1cc(Sc2nc3c(N)nc[n+](CCC4CCN(C=O)CC4)c3[nH]2)cc(OC)c1OC [Example 541, 4-(2-{6-Amino-8-[(3,4,5-trimethoxyphenyl)thio]-3 H-purin-3-yl}ethyl)piperidine-1-carbaldehyde]	4.00	
C[C@H](N)C(=O)N1CCC(CCn2c(Sc3cc4c(cc3Br)OCO4)nc3c(N)ncnc32)CC1 [Example 742, 9-(2-{1-[(2S)-2-Aminopropanoyl]piperidin-4-yl}ethyl)-8-[(6-bromo-1,3-benzodioxol-5-yl)thio]-9H-purin-6-amine]		140
Cc1ncsc1CCn1cnc(N)c2nc(Sc3cc4c(cc3Br)OCO4)nc1-2 [Example 331, 8-[(6-Bromo-1,3-benzodioxol-5-yl)thio]-3-[2-(4-methyl-1,3-thiazol-5-yl)ethyl]-3H-purin-6-amine]	25.0	
COc1ccc(OC)c(Sc2nc3c(N)ncn(CCc4ccccc4[N+](=O)[O-])c-3n2)c1 [Example 206, 8-(2,5-dimethoxy-phenylsulfanyl)-3-[2-(2-nitro-phenyl)-ethyl]-3H-purin-6-ylamine]	0	
COc1ccc(OC)c(Sc2nc3c(N)ncn(CCc4ccc(-c5ccccc5)cc4)c-3n2)c1 [Example 182, 3-(2-biphenyl-4-yl-ethyl)-8-(2,5-dimethoxy-phenylsulfanyl)-3H-purin-6-ylamine]	>10	
Nc1ncnc2c1nc(Sc1cc3c(cc1Br)OCO3)n2CCC1CC2CCC(C1)O2 (centres unmarked) [Example 605]		56
CC(C)(C)OC(=O)N1CCC(CCn2cnc(N)c3nc(Sc4cc5c(cc4Br)OCO5)nc2-3)CC1 [Example 344, tert-Butyl 4-(2-{6-amino-8-[(6-bromo-1,3-benzodioxol-5-yl)thio]-3H-purin-3-yl}ethyl)piperidine-1-carboxylate]	22	
Nc1ncnc2c1nc(Sc1cc3c(cc1Br)OCO3)n2CCc1cccc2ccccc12 [Example 157, 8-(6-Bromo-benzo[1,3]dioxol-5-ylsulfanyl)-9-(2-naphthalen-1-yl-ethyl)-9H-purin-6-ylamine]	58	500
COc1cc(Sc2nc3c(N)ncnc3n2CCCc2ccccc2)cc(OC)c1OC [Example 47, 9-(3-Phenyl-propyl)-8-(3,4,5-trimethoxy-phenylsulfanyl)-9H-purin-6-ylamine]		> 10000
N=C(N)N1CCC(CCn2c(Sc3cc4c(cc3Br)OCO4)nc3c(N)ncnc32)CC1 [Example 616, 4-(2-{6-Amino-8-[(6-bromo-1,3-benzodioxol-5-yl)thio]-9 H-purin-9-yl}ethyl)piperidine-1-carboximidamide]		90
Nc1ncnc2c1nc(Sc1cc3c(cc1Br)OCO3)n2CCc1ccccc1Br [Example 149, 8-(6-Bromo-benzo[1,3]dioxol-5-ylsulfanyl)-9-[2-(2-bromo-phenyl)-ethyl]-9H-purin-6-ylamine]		70
COc1ccc(OC)c(Sc2nc3c(N)ncnc3n2CCN2CCN(C(=O)C(C)(C)C)CC2)c1 [Example 444, 8-[(2,5-Dimethoxyphenyl)thio]-9-{2-[4-(2,2-dimethylpropanoyl)piperazin-1-yl]ethyl}-9H-purin-6-amine]		1100
COC(=O)[C@H](CCSC)NC(=O)N1CCC(CCn2c(Sc3cc4c(cc3Br)OCO4)nc3c(N)ncnc32)CC1 [Example 505, Methyl N-{[4-(2-{6-amino-8-[(6-bromo-1,3-benzodioxol-5-yl)thio]-9 H-purin-9-yl}ethyl)piperidin-1-yl]carbonyl}-L-methioninate]		85
COc1ccc(OC)c(Sc2nc3c(N)ncnc3n2CCc2ccc([N+](=O)[O-])cc2)c1 [Example 8, 8-(2,5-Dimethoxy-phenylsulfanyl)-9-[2-(4-nitro-phenyl)-ethyl]-9H-purin-6-ylamine]		18000
COc1ccc(Sc2nc3c(N)ncnc3n2CCc2ccccc2)c(OC)c1 [Example 15, 8-(2,4-Dimethoxy-phenylsulfanyl)-9-phenethyl-9H-purin-6-ylamine]		6500
CN(C)CC(=O)N1CCC(CCn2c(Sc3cc4c(cc3Br)OCO4)nc3c(N)ncnc32)CC1 [Example 707, 8-[(6-Bromo-1,3-benzodioxol-5-yl)thio]-9-(2-{1-[(dimethylamino)acetyl]piperidin-4-yl}ethyl)-9H-purin-6-amine]		70
COc1cccc(CCn2c(Sc3cc4c(cc3Br)OCO4)nc3c(N)ncnc32)c1 [Example 308, 8-[(6-Bromo-1,3-benzodioxol-5-yl)thio]-9-[2-(3-methoxyphenyl)ethyl]-9H-purin-6-amine]		180
Nc1ncn(CC(c2ccccc2)C2CCCC2)c2nc(Sc3cc4c(cc3Br)OCO4)nc1-2 (centres unmarked) [Example 102, 8-(6-bromo-benzo[1,3]dioxol-5-ylsulfanyl)-3-(2-cyclopentyl-2-phenyl-ethyl)-3H-purin-6-ylamine]	39	
